Here are results for 21 molecules from patent US20250026778A1 (TIUMBIO CO., LTD., priority 2021, published 2025).

T1 sequence (P17931 whole entry): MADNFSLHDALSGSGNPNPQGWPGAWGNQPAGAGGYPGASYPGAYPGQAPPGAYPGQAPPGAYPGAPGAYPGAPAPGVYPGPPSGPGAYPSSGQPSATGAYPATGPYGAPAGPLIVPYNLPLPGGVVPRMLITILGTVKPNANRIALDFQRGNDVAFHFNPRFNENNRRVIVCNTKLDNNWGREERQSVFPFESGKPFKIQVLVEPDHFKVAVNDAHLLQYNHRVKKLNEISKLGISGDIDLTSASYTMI

One test concerns the target T1, his-galectin-3 (Homo sapiens, UniProt P17931).
T1 construct: purchased Abcam
Kind of test: TR-FRET assay (in vitro galectin-3 binding inhibitory activity test). The following applies: Table 1; compound at 20 μM; 60 nM his-galectin-3, 15 nM biotin-ASF; read-out: % Inhibitory activity (at 20 μM). Summed up: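 Compound is premixed with his-galectin-3 (60 nM final), then biotin-ASF (15 nM), Tb anti-His antibody (2 nM) and streptavidin-d2 (20 nM) are added. After at least 3.5 hours at RT in HEPES/NaCl buffer with Tween 20 and BSA, TR-FRET is read at 615/665 nm. DMSO serves as the uninhibited control, ASF omission as background.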
Background: In TR-FRET formats the signal depends on donor and acceptor labels being close together.
In the case of `O=C(Cc1ccc(-c2ccccc2)cc1)N[C@@H]1CCO[C@]12O[C@H](CO)[C@H](O)[C@H](n1cc(-c3cc(F)c(F)c(F)c3)nn1)[C@H]2O` [Compound A135, 2-([1,1′-biphenyl]-4-yl)-N-((4R,5S,7R,8R,9S,10R)-8,10-dihydroxy-7-(hydroxymethyl)-9-(4-(3,4,5-trifluorophenyl)-1H-1,2,3-triazol-1-yl)-1,6-dioxaspiro[4.5]decan-4-yl)acetamide], the inhibition at 20 µM was below 25%.

Turning to `O=C(O[C@@H]1[C@@H](n2cc(-c3cc(F)c(F)c(F)c3)nn2)[C@@H](O)[C@@H](CO)O[C@@]12CCCO2)c1ccccc1Cl` [Compound A70, (5S,7R,8R,9S,10R)-8-hydroxy-7-(hydroxymethyl)-9-(4-(3,4,5-trifluorophenyl)-1H-1,2,3-triazol-1-yl)-1,6-dioxaspiro[4.5]decan-10-yl 2-chlorobenzoate], the inhibition at 20 µM was below 25%.

With `O=C(Cc1cccc(Br)c1)N[C@@H]1CCO[C@]12O[C@H](CO)[C@H](O)[C@H](n1cc(-c3cc(F)c(F)c(F)c3)nn1)[C@H]2O` [Compound A151, 2-(3-bromophenyl)-N-((4R,5S,7R,8R,9S,10R)-8,10-dihydroxy-7-(hydroxymethyl)-9-(4-(3,4,5-trifluorophenyl)-1H-1,2,3-triazol-1-yl)-1,6-dioxaspiro[4.5]decan-4-yl)acetamide], the inhibition at 20 µM is above 75%.

`OC[C@H]1O[C@]2(OCC[C@H]2NCc2cccc(Cl)c2O)[C@H](O)[C@@H](n2cc(-c3cc(F)c(F)c(F)c3)nn2)[C@H]1O` [Compound A127, (4R,5S,7R,8R,9S,10R)-4-((3-chloro-2-hydroxybenzyl)amino)-7-(hydroxymethyl)-9-(4-(3,4,5-trifluorophenyl)-1H-1,2,3-triazol-1-yl)-1,6-dioxaspiro[4.5]decane-8,10-diol]: the inhibition at 20 µM was in the range of 50 to 75%.

`OC[C@H]1O[C@@]2(CCCCO2)[C@H](OCc2nn[nH]n2)[C@@H](n2cc(-c3cc(F)c(F)c(F)c3)nn2)[C@H]1O` [Compound A45, (2R,3R,4S,5R,6S)-5-((2H-tetrazol-5-yl)methoxy)-2-(hydroxymethyl)-4-(4-(3,4,5-trifluorophenyl)-1H-1,2,3-triazol-1-yl)-1,7-dioxaspiro[5.5]undecan-3-ol]: the inhibition at 20 µM was in the range of 50 to 75%.

Take `O=C(O[C@@H]1[C@@H](n2cc(-c3cc(F)c(F)c(F)c3)nn2)[C@@H](O)[C@@H](CO)O[C@@]12CCCO2)c1ccc(F)cc1` [Compound A79, (5S,7R,8R,9S,10R)-8-hydroxy-7-(hydroxymethyl)-9-(4-(3,4,5-trifluorophenyl)-1H-1,2,3-triazol-1-yl)-1,6-dioxaspiro[4.5]decan-10-yl 4-fluorobenzoate]: the inhibition at 20 µM is below 25%.

Turning to `O=C(c1cccnc1)N1CCC[C@]2(C1)O[C@H](CO)[C@H](O)[C@H](n1cc(-c3cc(F)c(F)c(F)c3)nn1)[C@H]2O` [Compound A144, ((2R,3R,4S,5R,6R)-3,5-dihydroxy-2-(hydroxymethyl)-4-(4-(3,4,5-trifluorophenyl)-1H-1,2,3-triazol-1-yl)-1-oxa-8-azaspiro[5.5]undecan-8-yl)(pyridin-3-yl)methanone], the inhibition at 20 µM is below 25%.

Turning to `OC[C@H]1O[C@@]2(CCCO2)[C@H](OCc2ccccc2O)[C@@H](n2cc(-c3cc(F)c(F)c(F)c3)nn2)[C@H]1O` [Compound A37, (5S,7R,8R,9S,10R)-10-((2-hydroxybenzyl)oxy)-7-(hydroxymethyl)-9-(4-(3,4,5-trifluorophenyl)-1H-1,2,3-triazol-1-yl)-1,6-dioxaspiro[4.5]decan-8-ol], the inhibition at 20 µM fell in the range of 25 to 50%.

Still in this test, the particulars now being: Table 2; compound at 20 μM; 60 nM his-galectin-3, 15 nM biotin-ASF; read-out: % Inhibitory activity (at 20 μM).
In the case of `O=C(N[C@@H]1CCO[C@]12O[C@H](CO)[C@H](O)[C@H](n1cc(-c3cc(F)c(F)c(F)c3)nn1)[C@H]2OCc1nn[nH]n1)c1ccc(F)c2ccccc12` [Compound A210, N-((4R,5S,7R,8R,9S,10R)-10-((2H-tetrazol-5-yl)methoxy)-8-hydroxy-7-(hydroxymethyl)-9-(4-(3,4,5-trifluorophenyl)-1H-1,2,3-triazol-1-yl)-1,6-dioxaspiro[4.5]decan-4-yl)-4-fluoro-1-naphthamide], the inhibition at 20 µM is above 75%.

For the molecule `O=C(N[C@@H]1CCO[C@]12O[C@H](CO)[C@H](O)[C@H](n1cc(-c3cc(F)c(F)c(F)c3)nn1)[C@H]2O)c1cccc2c1CCC2` [Compound A162, N-((4R,5S,7R,8R,9S,10R)-8,10-dihydroxy-7-(hydroxymethyl)-9-(4-(3,4,5-trifluorophenyl)-1H-1,2,3-triazol-1-yl)-1,6-dioxaspiro[4.5]decan-4-yl)-2,3-dihydro-1H-indene-4-carboxamide], the inhibition at 20 µM was 50 to 75%.

Take `O=C(N[C@@H]1CCO[C@]12O[C@H](CO)[C@H](O)[C@H](n1cc(-c3cc(F)c(F)c(F)c3)nn1)[C@H]2O)c1cc(=O)[nH]c2ccc(Br)cc12` [Compound A252, 6-bromo-N-((4R,5S,7R,8R,9S,10R)-8,10-dihydroxy-7-(hydroxymethyl)-9-(4-(3,4,5-trifluorophenyl)-1H-1,2,3-triazol-1-yl)-1,6-dioxaspiro[4.5]decan-4-yl)-2-oxo-1,2-dihydroquinoline-4-carboxamide]: the inhibition at 20 µM is above 75%.

As for `O=C(N[C@@H]1CCO[C@]12O[C@H](CO)[C@H](O)[C@H](n1cc(-c3cc(F)c(F)c(F)c3)nn1)[C@H]2O)c1csc2ccc(Br)cc12` [Compound A251, 5-bromo-N-((4R,5S,7R,8R,9S,10R)-8,10-dihydroxy-7-(hydroxymethyl)-9-(4-(3,4,5-trifluorophenyl)-1H-1,2,3-triazol-1-yl)-1,6-dioxaspiro[4.5]decan-4-yl)benzo[b]thiophene-3-carboxamide], the inhibition at 20 µM was above 75%.

Consider `O=C(N[C@@H]1CCO[C@]12O[C@H](CO)[C@H](O)[C@H](n1cc(-c3cc(F)c(F)c(F)c3)nn1)[C@H]2O)c1cccc2ncc(Br)cc12` [Compound A208, 3-bromo-N-((4R,5S,7R,8R,9S,10R)-8,10-dihydroxy-7-(hydroxymethyl)-9-(4-(3,4,5-trifluorophenyl)-1H-1,2,3-triazol-1-yl)-1,6-dioxaspiro[4.5]decan-4-yl)quinoline-5-carboxamide], for which the inhibition at 20 µM was above 75%.

Turning to `O=C(N[C@@H]1CCO[C@]12O[C@H](CO)[C@H](O)[C@H](n1cc(-c3cc(F)c(F)c(F)c3)nn1)[C@H]2O)c1cccc(-c2cccc(F)c2)c1` [Compound A165, N-((4R,5S,7R,8R,9S,10R)-8,10-dihydroxy-7-(hydroxymethyl)-9-(4-(3,4,5-trifluorophenyl)-1H-1,2,3-triazol-1-yl)-1,6-dioxaspiro[4.5]decan-4-yl)-3′-fluoro-[1,1′-biphenyl]-3-carboxamide], the inhibition at 20 µM fell in the range of 50 to 75%.

For the molecule `O=C(N[C@@H]1CCO[C@]12O[C@H](CO)[C@H](O)[C@H](n1cc(-c3cc(F)c(F)c(F)c3)nn1)[C@H]2O)c1csc2cccc(Br)c12` [Compound A248, 4-bromo-N-((4R,5S,7R,8R,9S,10R)-8,10-dihydroxy-7-(hydroxymethyl)-9-(4-(3,4,5-trifluorophenyl)-1H-1,2,3-triazol-1-yl)-1,6-dioxaspiro[4.5]decan-4-yl)benzo[b]thiophene-3-carboxamide], the inhibition at 20 µM is below 25%.

Consider `O=C(N[C@@H]1CCO[C@]12O[C@H](CO)[C@H](O)[C@H](n1cc(-c3cc(F)c(F)c(F)c3)nn1)[C@H]2O)c1ccc(Br)c2ccccc12` [Compound A176, 4-bromo-N-((4R,5S,7R,8R,9S,10R)-8,10-dihydroxy-7-(hydroxymethyl)-9-(4-(3,4,5-trifluorophenyl)-1H-1,2,3-triazol-1-yl)-1,6-dioxaspiro[4.5]decan-4-yl)-1-naphthamide], for which the inhibition at 20 µM is above 75%.

In the case of `O=C(Cc1cccc(Oc2ccccc2)c1)N[C@@H]1CCO[C@]12O[C@H](CO)[C@H](O)[C@H](n1cc(-c3cc(F)c(F)c(F)c3)nn1)[C@H]2O` [Compound A183, N-((4R,5S,7R,8R,9S,10R)-8,10-dihydroxy-7-(hydroxymethyl)-9-(4-(3,4,5-trifluorophenyl)-1H-1,2,3-triazol-1-yl)-1,6-dioxaspiro[4.5]decan-4-yl)-2-(3-phenoxyphenyl)acetamide], the inhibition at 20 µM is below 25%.

Regarding `CC1CO[C@@]2(C1)O[C@H](CO)[C@H](O)[C@H](n1cc(-c3cc(F)c(F)c(F)c3)nn1)[C@H]2OCC(=O)O` (single isomer, unassigned) [Compound A236], the inhibition at 20 µM fell in the range of 50 to 75%.

With `Cc1cc(C(=O)N[C@@H]2CCO[C@]23O[C@H](CO)[C@H](O)[C@H](n2cc(-c4cc(F)c(F)c(F)c4)cn2)[C@H]3O)c2cc(Cl)ccc2n1` [Compound A239, 6-chloro-N-((4R,5S,7R,8R,9S,10R)-8,10-dihydroxy-7-(hydroxymethyl)-9-(4-(3,4,5-trifluorophenyl)-1H-pyrazol-1-yl)-1,6-dioxaspiro[4.5]decan-4-yl)-2-methylquinoline-4-carboxamide], the inhibition at 20 µM was above 75%.

Consider `O=C(N[C@@H]1CCO[C@]12O[C@H](CO)[C@H](O)[C@H](n1cc(-c3cc(F)c(F)c(F)c3)nn1)[C@H]2O)c1cccc2occc12` [Compound A230, N-((4R,5S,7R,8R,9S,10R)-8,10-dihydroxy-7-(hydroxymethyl)-9-(4-(3,4,5-trifluorophenyl)-1H-1,2,3-triazol-1-yl)-1,6-dioxaspiro[4.5]decan-4-yl)benzofuran-4-carboxamide], for which the inhibition at 20 µM fell in the range of 50 to 75%.

The test is the same for the next values; noted with them: Table 3, found values; compound at 20 μM; 60 nM his-galectin-3, 15 nM biotin-ASF; read-out: % Inhibitory activity (at 20 μM).
With `O=C(N[C@@H]1CCO[C@]12O[C@H](CO)[C@H](O)[C@H](n1cc(-c3cc(F)c(F)c(F)c3)nn1)[C@H]2OCc1nn[nH]n1)c1ccc(F)c2ccccc12` [Compound A210, N-((4R,5S,7R,8R,9S,10R)-10-((2H-tetrazol-5-yl)methoxy)-8-hydroxy-7-(hydroxymethyl)-9-(4-(3,4,5-trifluorophenyl)-1H-1,2,3-triazol-1-yl)-1,6-dioxaspiro[4.5]decan-4-yl)-4-fluoro-1-naphthamide], the inhibition at 20 µM stood at 90.6%.

As to `O=C(N[C@@H]1CCO[C@]12O[C@H](CO)[C@H](O)[C@H](n1cc(-c3cc(F)c(F)c(F)c3)nn1)[C@H]2O)c1cccc2c1CCC2` [Compound A162, N-((4R,5S,7R,8R,9S,10R)-8,10-dihydroxy-7-(hydroxymethyl)-9-(4-(3,4,5-trifluorophenyl)-1H-1,2,3-triazol-1-yl)-1,6-dioxaspiro[4.5]decan-4-yl)-2,3-dihydro-1H-indene-4-carboxamide], the inhibition at 20 µM came to 69.9%.

On to `O=C(N[C@@H]1CCO[C@]12O[C@H](CO)[C@H](O)[C@H](n1cc(-c3cc(F)c(F)c(F)c3)nn1)[C@H]2O)c1cccc2occc12` [Compound A230, N-((4R,5S,7R,8R,9S,10R)-8,10-dihydroxy-7-(hydroxymethyl)-9-(4-(3,4,5-trifluorophenyl)-1H-1,2,3-triazol-1-yl)-1,6-dioxaspiro[4.5]decan-4-yl)benzofuran-4-carboxamide], for which the inhibition at 20 µM stood at 66.5%.

Still in this test, the particulars now being: read-out: % Inhibitory activity (at 20 μM), Table 1; compound at 20 μM; 60 nM his-galectin-3, 15 nM biotin-ASF.
With `OC[C@H]1O[C@]2(OCC[C@H]2NCc2ccccc2)[C@H](O)[C@@H](n2cc(-c3cc(F)c(F)c(F)c3)nn2)[C@H]1O` [Compound A105, (4R,5S,7R,8R,9S,10R)-4-(benzylamino)-7-(hydroxymethyl)-9-(4-(3,4,5-trifluorophenyl)-1H-1,2,3-triazol-1-yl)-1,6-dioxaspiro[4.5]decane-8,10-diol], the inhibition at 20 µM was below 25%.
